Test results: ChEMBL document CHEMBL2440076, “New triarylpyrazoles as broad-spectrum anticancer agents: design, synthesis, and biological evaluation” (Eur J Med Chem, 2013)
pIC50: −log10 of the molar value.

Tests used:
[1] = system: NCI-H226; assay: Growth inhibition of human NCI-H226 cells assessed as cell growth at 5X10'-6 M after 48 hrs by sulforhodamine B assay; assay type: functional; details: NCI-H226, 48 h, read-out: Activity
[2] = system: SF-268; assay: Growth inhibition of human SF268 cells assessed as cell growth at 5X10'-7 M after 48 hrs by sulforhodamine B assay; assay type: functional; details: SF-268, 48 h, read-out: Activity
[3] = system: OVCAR-4; assay: Growth inhibition of human OVCAR4 cells assessed as cell growth at 5X10'-9 M after 48 hrs by sulforhodamine B assay; assay type: functional; details: OVCAR-4, 48 h, read-out: Activity
[4] = system: ACHN; assay: Growth inhibition of human ACHN cells assessed as cell growth at 5X10'-8 M after 48 hrs by sulforhodamine B assay; assay type: functional; details: read-out: Activity
[5] = system: LOX IMVI; assay: Growth inhibition of human LOXIMVI cells after 48 hrs by sulforhodamine B assay; assay type: functional
[6] = system: RXF 393; assay: Growth inhibition of human RXF393 cells assessed as cell growth at 5X10'-8 M after 48 hrs by sulforhodamine B assay; assay type: functional; details: RXF 393, 48 h, read-out: Activity
[7] = system: UO-31; assay: Growth inhibition of human UO31 cells after 48 hrs by sulforhodamine B assay; assay type: functional; details: UO-31, 48 h; for CC50: read-out: LC50 (the source's name)
[8] = Growth inhibition of human Hs 578T cells assessed as cell growth at 5X10'-9 M after 48 hrs by sulforhodamine B assay; assay type: functional; details: read-out: Activity
[9] = system: K562; assay: Growth inhibition of human K562 cells assessed as cell growth at 5X10'-7 M after 48 hrs by sulforhodamine B assay; assay type: functional; details: K562, 48 h, read-out: Activity
[10] = system: M14; assay: Growth inhibition of human M14 cells assessed as cell growth at 5X10'-7 M after 48 hrs by sulforhodamine B assay; assay type: functional; details: M14, 48 h, read-out: Activity
[11] = system: SN12C; assay: Growth inhibition of human SN12C cells assessed as cell growth at 10 uM after 48 hrs by sulforhodamine B assay; assay type: functional; details: read-out: Activity
[12] = system: A498; assay: Growth inhibition of human A498 cells assessed as cell growth at 5X10'-5 M after 48 hrs by sulforhodamine B assay; assay type: functional; details: A498, 48 h, read-out: Activity
[13] = system: NCI-H460; assay: Growth inhibition of human NCI-H460 cells assessed as cell growth at 10 uM after 48 hrs by sulforhodamine B assay; assay type: functional; details: NCI-H460, 48 h, read-out: Activity
[14] = system: Malme-3M; assay: Growth inhibition of human MALME-3M cells assessed as cell growth at 5X10'-5 M after 48 hrs by sulforhodamine B assay; assay type: functional; details: read-out: Activity
[15] = system: SF-268; assay: Growth inhibition of human SF268 cells assessed as cell growth at 10 uM after 48 hrs by sulforhodamine B assay; assay type: functional; details: SF-268, 48 h, read-out: Activity
[16] = system: MDA-MB-231; assay: Growth inhibition of human MDA-MB-231 cells assessed as cell growth at 5X10'-7 M after 48 hrs by sulforhodamine B assay; assay type: functional; details: MDA-MB-231, 48 h, read-out: Activity
[17] = system: RXF 393; assay: Growth inhibition of human RXF393 cells assessed as cell growth at 5X10'-9 M after 48 hrs by sulforhodamine B assay; assay type: functional; details: RXF 393, 48 h, read-out: Activity
[18] = system: MDA-MB-468; assay: Growth inhibition of human MDA-MB-468 cells after 48 hrs by sulforhodamine B assay; assay type: functional, cell-based; details: MDA-MB-468, 48 h; for CC50: read-out: LC50 (the source's name)
[19] = system: M14; assay: Growth inhibition of human M14 cells assessed as cell growth at 10 uM after 48 hrs by sulforhodamine B assay; assay type: functional; details: M14, 48 h, read-out: Activity
[20] = system: CCRF-CEM; assay: Growth inhibition of human CCRF-CEM cells assessed as cell growth at 5X10'-6 M after 48 hrs by sulforhodamine B assay; assay type: functional; details: read-out: Activity
[21] = system: MDA-MB-468; assay: Growth inhibition of human MDA-MB-468 cells assessed as cell growth at 5X10'-8 M after 48 hrs by sulforhodamine B assay; assay type: functional; details: MDA-MB-468, 48 h, read-out: Activity
[22] = system: CCRF-CEM; assay: Growth inhibition of human CCRF-CEM cells assessed as cell growth at 5X10'-9 M after 48 hrs by sulforhodamine B assay; assay type: functional; details: read-out: Activity
[23] = system: OVCAR-4; assay: Growth inhibition of human OVCAR4 cells after 48 hrs by sulforhodamine B assay; assay type: functional; details: OVCAR-4, 48 h
[24] = system: NCI-H322M; assay: Growth inhibition of human NCI-H322M cells after 48 hrs by sulforhodamine B assay; assay type: functional; details: for CC50: read-out: LC50 (the source's name)
[25] = system: HCT-116; assay: Growth inhibition of human HCT116 cells after 48 hrs by sulforhodamine B assay; assay type: functional; details: HCT-116, 48 h; for CC50: read-out: LC50 (the source's name)
[26] = system: K562; assay: Growth inhibition of human K562 cells assessed as cell growth at 5X10'-6 M after 48 hrs by sulforhodamine B assay; assay type: functional; details: K562, 48 h, read-out: Activity
[27] = system: HCT-116; assay: Growth inhibition of human HCT116 cells assessed as cell growth at 5X10'-9 M after 48 hrs by sulforhodamine B assay; assay type: functional; details: HCT-116, 48 h, read-out: Activity
[28] = system: NCI-H23; assay: Growth inhibition of human NCI-H23 cells assessed as cell growth at 5X10'-5 M after 48 hrs by sulforhodamine B assay; assay type: functional; details: NCI-H23, 48 h, read-out: Activity
[29] = system: PC-3; assay: Growth inhibition of human PC3 cells after 48 hrs by sulforhodamine B assay; assay type: functional, cell-based; details: PC-3, 48 h; for CC50: read-out: LC50 (the source's name)
[30] = system: IGROV-1; assay: Growth inhibition of human IGROV1 cells assessed as cell growth at 5X10'-7 M after 48 hrs by sulforhodamine B assay; assay type: functional; details: IGROV-1, 48 h, read-out: Activity
[31] = system: NCI-H23; assay: Growth inhibition of human NCI-H23 cells assessed as cell growth at 5X10'-9 M after 48 hrs by sulforhodamine B assay; assay type: functional; details: NCI-H23, 48 h, read-out: Activity
[32] = system: SNB-19; assay: Growth inhibition of human SNB19 cells assessed as cell growth at 5X10'-5 M after 48 hrs by sulforhodamine B assay; assay type: functional; details: SNB-19, 48 h, read-out: Activity
[33] = system: SNB-19; assay: Growth inhibition of human SNB19 cells after 48 hrs by sulforhodamine B assay; assay type: functional; details: SNB-19, 48 h
[34] = system: DU-145; assay: Growth inhibition of human DU145 cells assessed as cell growth at 5X10'-7 M after 48 hrs by sulforhodamine B assay; assay type: functional; details: DU-145, 48 h, read-out: Activity
[35] = system: U-251; assay: Growth inhibition of human U251 cells assessed as cell growth at 5X10'-6 M after 48 hrs by sulforhodamine B assay; assay type: functional; details: U-251, 48 h, read-out: Activity
[36] = system: ACHN; assay: Growth inhibition of human ACHN cells assessed as cell growth at 5X10'-6 M after 48 hrs by sulforhodamine B assay; assay type: functional; details: read-out: Activity

`COc1cc(-c2nn(-c3cccc(NC(=O)Nc4cc(C(F)(F)F)cc(C(F)(F)F)c4)c3)cc2-c2ccncc2)ccc1Cl` showed a growth at 5 µM [1] of 7%, a growth at 0.5 µM [2] of 87% and a growth at 0.005 µM [3] of 95%. For the same compound, the growth at 0.05 µM [4] was 100%, the GI50 [5] was 783 nM and the LC50 [5] was 2940 nM. For the same compound, the TGI [5] was 1520 nM, the growth at 0.05 µM [6] was 92% and the GI50 [7] was 600 nM. It also gave a TGI [7] of 1280 nM, a CC50 [7] of 2730 nM and a growth at 0.005 µM [8] of 96%. The growth at 0.5 µM [9] was 42%, the growth at 0.5 µM [10] was 71% and the growth at 10 µM [11] was -8.08%. The growth at 50 µM [12] was -89%, the growth at 10 µM [13] was -49.7% and the growth at 50 µM [14] was -63%. The growth at 10 µM [15] was -46.3%, the growth at 0.5 µM [16] was 69% and the growth at 0.005 µM [17] was 98%. It also gave a GI50 [18] of 307 nM, a pIC50 [18] of 6.51 and a TGI [18] of 1540 nM. For the same compound, the CC50 [18] was 24300 nM, the growth at 10 µM [19] was -42.1% and the growth at 5 µM [20] was -17%. For the same compound, the growth at 0.05 µM [21] was 85%, the growth at 0.005 µM [22] was 101% and the GI50 [23] was 1120 nM. For the same compound, the LC50 (concentration killing 50% of cells) [23] was > 50000 nM, the TGI [23] was 9640 nM and the GI50 [24] was 1020 nM. It also gave a TGI [24] of 3000 nM, a CC50 [24] of 29900 nM and a GI50 [25] of 643 nM. For the same compound, the TGI [25] was 1760 nM, the CC50 [25] was 4830 nM and the growth at 5 µM [26] was -10%. The growth at 0.005 µM [27] was 101%, the growth at 50 µM [28] was -59% and the GI50 [29] was 250 nM. The pIC50 [29] was 6.60, the TGI [29] was 2070 nM and the CC50 [29] was > 50000 nM. The growth at 0.5 µM [30] was 76%, the growth at 0.005 µM [31] was 99% and the growth at 50 µM [32] was -40%. The GI50 [33] was 711 nM, the LC50 (concentration killing 50% of cells) [33] was > 50000 nM and the TGI [33] was 3670 nM. For the same compound, the growth at 0.5 µM [34] was 86%, the growth at 5 µM [35] was -77% and the growth at 5 µM [36] was 2%.

`O=C(Nc1cccc(-n2cc(-c3ccncc3)c(-c3ccc(Cl)c(O)c3)n2)c1)c1ccc(N2CCOCC2)c(C(F)(F)F)c1` gave a growth at 5 µM [1] of 100%, a growth at 0.5 µM [2] of 104% and a growth at 0.005 µM [3] of 93%. It also gave a growth at 0.05 µM [4] of 99%, a GI50 [5] of 1640 nM and an LC50 [5] of 44800 nM. It also gave a TGI [5] of 7300 nM, a growth at 0.05 µM [6] of 101% and a GI50 [7] of 2600 nM. For the same compound, the TGI [7] was 34300 nM, the CC50 [7] was > 50000 nM and the growth at 0.005 µM [8] was 92%. The growth at 0.5 µM [9] was 103%, the growth at 0.5 µM [10] was 84% and the growth at 10 µM [11] was 73.9%. The growth at 50 µM [12] was 6%, the growth at 10 µM [13] was 5.81% and the growth at 50 µM [14] was -40%. The growth at 10 µM [15] was 55.5%, the growth at 0.5 µM [16] was 67% and the growth at 0.005 µM [17] was 105%. For the same compound, the GI50 [18] was 7040 nM, the pIC50 [18] was 5.15 and the TGI [18] was 26600 nM. For the same compound, the CC50 [18] was > 50000 nM, the growth at 10 µM [19] was 22.7% and the growth at 5 µM [20] was 26%. For the same compound, the growth at 0.05 µM [21] was 93%, the growth at 0.005 µM [22] was 98% and the GI50 [23] was 39200 nM. The LC50 (concentration killing 50% of cells) [23] was > 50000 nM, the TGI [23] was > 50000 nM and the GI50 [24] was > 50000 nM. For the same compound, the TGI [24] was > 50000 nM, the CC50 [24] was > 50000 nM and the GI50 [25] was 2870 nM. The TGI [25] was > 50000 nM, the CC50 [25] was > 50000 nM and the growth at 5 µM [26] was 11%. The growth at 0.005 µM [27] was 99%, the growth at 50 µM [28] was -13% and the GI50 [29] was 2150 nM. For the same compound, the pIC50 [29] was 5.67, the TGI [29] was > 50000 nM and the CC50 [29] was > 50000 nM. It also gave a growth at 0.5 µM [30] of 112%, a growth at 0.005 µM [31] of 93% and a growth at 50 µM [32] of 16%. The GI50 [33] was 4110 nM, the LC50 (concentration killing 50% of cells) [33] was > 50000 nM and the TGI [33] was > 50000 nM. It also gave a growth at 0.5 µM [34] of 96%, a growth at 5 µM [35] of 16% and a growth at 5 µM [36] of 25%.
